Experiments:
[1] = tested on: calcium value in the rat serum; assay: Transdermal iontophoretic administration of calcitonin in rats after skin cleaning (Example 3), serum calcium; assay type: in vivo, male SD rats; conditions: 0.04 μg per sheet, 6 V, 30 kHz, 30% duty, 45 minutes
Protocol: Under pentobarbital anesthesia, 7 week old male SD rats had their stomach skin sheared by electric shears and shaved by a shaver, then absorbent cotton containing an aqueous solution of 70% by weight ethanol (Group 3) or absorbent cotton containing an aqueous solution of 70% by weight ethanol plus 0.01% benzalkonium chloride (Group 4) was used to lightly rub and disinfect the areas. Calcitonin dried and held in an amount of 0.04 μg per sheet of drug film (synthetic salmon calcitonin made by Sigma Co.) was dissolved in an aqueous solution at the time of use and used for one rat. The conditions of conductance of power in the iontophoresis were a depolarization type constant voltage high duty pulse of 6 V, 30 kHz, and 30% duty applied for 45 minutes. The blood was sampled after a predetermined time from the jugular vein and was centrifugally separated at 12,000 rpm for 5 minutes. The supernatant was used as the serum sample. The calcium in the blood was measured by the o-cresol phthalein complex method (Calcium C Test Wako made by Wako Pure Chemical Industries, Ltd.).

[2] = tested on: calcium value in the rat serum; assay: Transdermal iontophoretic administration of calcitonin in rats with benzalkonium chloride-treated or nontreated nylon porous film (Example 1), serum calcium; assay type: in vivo, SD male rats; conditions: 2 IU (0.4 μg) per sheet, 6 V, 30 kHz, 30% duty, 45 minutes
Description: These drug holding members, that is, the ion exchange membrane (4), nonwoven fabric (5), and nylon porous member (6) (in this case the holding including at least contact with a drug contact member also acceptable) are coated or impregnated uniformly by an aqueous solution of 0.01% benzalkonium chloride or else immersed in an aqueous solution of the same for treatment, then stripped of water and dried. Of the thus obtained AC-220 membrane, nonwoven fabric, and nylon porous member, the skin contact surface of the nylon porous member has deposited on it a bioactive peptide by a means such as spray coating or impregnation followed by drying for retention. The portion of the nylon porous member (6) coming into contact with the live skin has the drug (11) affixed to it. At the edges of the nylon porous member (6) and under the support (10) are for example disposed an adhesive tape (8) composed of Blenderm® (made by 3M Health Care Ltd.).
Method: Under pentobarbital anesthesia, 7 week old SD male rats had their stomach skin sheared by electric shears and shaved by a shaver, then absorbent cotton containing an aqueous solution of 70% by weight ethanol was used to lightly rub and disinfect the area. […] The serum calcium was measured by the o-cresol phthalein complex method (Calcium C Test Wako made by Wako Pure Chemical Industries, Ltd.).

[3] = Prevention test of skin adsorption of drug: nonabsorbed calcitonin in solution on excised rat skin (Example 2), HPLC; assay type: in vitro ADME, male hairless rats; conditions: after one hour, 2 μg/ml calcitonin, 60 min
Protocol: The stomach skin of male hairless rats of 13 weeks age were sheared by electric shears, then lightly rubbed and disinfected by absorbent cotton containing an aqueous solution of 70% ethanol. The skin was separated by scissors, then placed on a paper towel moistened with physiological saline with the epidermal side facing up. An acrylic chamber cup (18 mm diameter and 20 mm height) was immersed for 5 minutes in a silicone coating and an aqueous solution of 1% benzalkonium chloride, then was fully rinsed and washed by distilled water. The acrylic chamber cup was adhered to the skin by medicinal adhesive and dried, then filled with 2 ml of an aqueous solution of 1% benzalkonium chloride (Group 2)or distilled water as a control (Group 1) and allowed to stand for 5 minutes. The solution was removed then the cup was fully rinsed and washed by distilled water. As one example of the polypeptide drug, a solution of 2 μg/ml of calcitonin (synthetic salmon calcitonin made by Sigma Co.) in distilled water was prepared. A 2 ml amount each were added to two acrylic chamber cups treated as explained above which were then allowed to stand. Amounts of 100 μl each were sampled after 1, 2, and 6 hours and the amount of nonabsorbed calcitonin in the solution was measured by high pressure liquid chromatography.

In the case of calcitonin, the “maximum reduction in the calcium value in rat serum” value ([1]; skin cleaned by 70% by weight ethanol containing 0.01% benzalkonium chloride (Group 4)) is reported as “about 30%”, the “maximum reduction in the calcium value in the rat serum” value ([1]; skin cleaned by 70% ethanol alone (Group 3)) is reported as “approximately 13%” and the “maximum reduction in the calcium value in the rat serum” value ([2]; nylon porous film not coated with surfactant (nontreated group)) is reported as “approximately 17%”. The “maximum reduction in the calcium value in the rat serum” value ([2]; nylon porous film treated by benzalkonium chloride (treated group)) was 28%, the “amount of calcitonin in the aqueous solution in terms of the initially prepared concentration” value ([3]; skin washed with 1% benzalkonium chloride (Group 2)) was “approximately 60%” and the “amount of calcitonin in the aqueous solution in terms of the initially prepared concentration” value ([3]; skin washed with just distilled water (Group 1)) was “approximately 30%”.

Reference: patent publication US5894021A, “Iontophoretic transdermal drug-delivery interface and skin treatment agent and treatment method using the same” (Kabushiki Kaisya Advance, priority 1994, dated 1999)
